Experimental data as given in patent US5369111A, “Modulator agent and use thereof” (University of Vermont, priority 1992, dated 1994).

Columns and labels:
S180/A10 cells = assay: Inhibition of population growth (cytotoxicity), MDR strain S180/A10; format: cell-based, mouse; details: 4320 min
Excerpt: (§1) The analogs were examined in a panel of tumor cell lines of both intrinsic and acquired drug resistance, as described in Table 1. The rat colon adenocarcinoma cell lines RCC-2 and RCC-5 (ref. 13) were maintained in Ham's F12 medium supplemented with 5% heat-inactivated, fetal bovine serum (Sterile Systems. Hyclone, Logan, Utah). The two rat colon cancer cell lines differ in their degree of cellular differentiation; whereas the RCC-2 cell line is undifferentiated, the RCC-5 cell line is highly mucinous. The human epidermoid carcinoma cell line KB-3-1 and its MDR variant KB-Vl, selected by VBL treatment (ref. 14; courtesy of M. Gottesman. National Cancer Institute), was maintained in DMEM medium supplemented with 10%, heat-inactivated, fetal bovine serum. The murine sarcoma cell line […] and its MDR strains A3 and A10 selected by ADM treatment (ref. 15; courtesy of T. Tritton, Dept. Pharmacology, Univ. Vermont). were maintained in DMEM medium supplemented with 10% heat-inactivated, horse serum (Hazelton Biolog. Lenexa, Kans.). Stock cultures were subcultured twice weekly upon reaching the late exponential phase of population growth: population doubling times were 18-24 h. Antibiotics were not used in stock or experimental cultures. The MDR cell strains were grown in drug-free media for 48 h prior to experimental use.
(§2) Mid-exponential cultures were used for all assays. The RCC-2 and RCC-5 cell lines were seeded into 24-well plates at 2×10^4 cells/well and allowed to attach to the substratum for 16-18 h prior to treatment. The S180 cell lines were seeded into culture tubes at 1×10^5 cells/ml and treated immediately. Cytotoxicity was determined by quantitation of population growth after 72 h incubation by electronic particle counter (Coulter Electronics, Hialeah, Fla.). The human tumor cell lines were used in a clonogenic assay for cytotoxicity. Cells were seeded at 300 cells/dish, incubated overnight and then treated. Colonies were scored 7-11 days later. In all assays of analog modulation of drug sensitivity, the analog was added minutes prior to the addition of cytotoxic drug.

P388 R cells = assay: Viability (MTT test) of P388 R cells; format: cell-based, mouse; details: for resistance of P388 R cells to cytotoxic activity of the drug: FIGS. 12 to 14
Excerpt: The sensitization of C-20'-deoxy C-20'-deethyl vincovaline (D-DEV) has been tested on sensitive and resistants P388 cell lines originating from mouse lympnoma.
The resistance to anticancerous drug has been induced on DBA2 mouses bearing P388 cells ascites and maintained by treatment with adryamycin.
This study has been carried out at least in triplicate.

KB-V1 cells = assay: Clonogenic assay for cytotoxicity, MDR variant KB-V1; format: cell-based, human; details: for Relative resistance: IC50 in KB-V1 divided by IC50 of parental, Table I
Excerpt: as §1, §2
FIG. 10 represents the potency of the analog C-20'-deoxy deethyl vincovaline as a modulator of the drug sensitivity of various cell lines: the parental S180 cell line: the two rat colon cancer cell lines, RCC-2 and RCC-5; and the human epidermoid carcinoma cell line KB-3-1 and its MDR cell strain KB-V1, which expresses very high levels of drug resistance (200-500 fold). The enhancement of sensitivity was calculated as the sensitivity index =IC50 of the drug alone divided by the IC50 of the drug+analog. The drugs examined were ADM (o), VBL (Δ), and VCR (.quadrature.). The cytotoxicity of drug and analog treatments in the KB cell lines were measured by cloning efficiencies. The arrows denote the non-toxic concentration limit of the analog in each cell line.

KB-3-1 cells = assay: Clonogenic assay for cytotoxicity, KB-3-1 parental; format: cell-based; details: Homo sapiens
Excerpt: as §1, §2

RCC-5 cells = assay: Inhibition of population growth (cytotoxicity), rat colon adenocarcinoma RCC-5; format: cell-based; details: Rattus norvegicus; RCC-5, 72 h
Excerpt: as §1, §2

S180/A3 cells = assay: Inhibition of population growth (cytotoxicity), MDR strain S180/A3; format: cell-based, mouse
Excerpt: as §1, §2

RCC-2 cells = assay: Inhibition of population growth (cytotoxicity), rat colon adenocarcinoma RCC-2; format: cell-based; details: Rattus norvegicus; RCC-2, 72 h
Excerpt: as §1, §2

S180 cells, parental = assay: Inhibition of population growth (cytotoxicity), S180 sarcoma, parental; format: cell-based, mouse; details: Mus musculus; for IC70: S-180, 72 h, parental S180; for IC50: S-180
Excerpt: as §1, §2

[1] = A10, IC50 resistant / IC50 parental, Table II
[2] = IC50 in S180/A10 divided by IC50 of parental, Table I
[3] = A3, IC50 resistant / IC50 parental, Table II, 4320 min
[4] = IC50 in S180/A3 divided by IC50 of parental, Table I

COc1cccc2c1C(=O)c1c(O)c3c(c(O)c1C2=O)C[C@@](O)(C(=O)CO)C[C@@H]3O[C@H]1C[C@H](N)[C@H](O)[C@H](C)O1 [ADM, adriamycin]
Relative resistance (S180/A10 cells; [1]): 90
Relative resistance (S180/A10 cells; [2]): 90
adriamycin cytotoxicity in P388 R cells (P388 R cells; 0.17 to 4.31 μM, 37° C., 24 and 48 hours): lack of adriamycin cytotoxicity
resistance of P388 R cells to cytotoxic activity of the drug (P388 R cells): resistance of P388 R cells to cytotoxic activity
resistance of KB-V1 to the drug (KB-V1 cells): ≥ 200 fold
Relative resistance (KB-V1 cells): 500
IC50 (KB-3-1 cells): 15 nM
IC50 (RCC-5 cells): 50 nM
Relative resistance (S180/A3 cells; [3]): 15
Relative resistance (S180/A3 cells; [4]): 15
IC50 (RCC-2 cells): 10 nM
IC70 (S180 cells, parental): 0.2 µM
IC50 (S180 cells, parental; S180, parental, Table II): 100 nM
IC50 (S180 cells, parental; S180 parental, 72 h, Table I): 100 nM

CC[C@]1(O)C[C@@H]2CN(CCc3c([nH]c4ccccc34)[C@@](C(=O)OC)(c3cc4c(cc3OC)N(C)[C@H]3[C@@](O)(C(=O)OC)[C@H](OC(C)=O)[C@]5(CC)C=CCN6CC[C@]43[C@@H]65)C2)C1 [VBL, vinblastine]
Relative resistance (S180/A10 cells; [1]): 15
Relative resistance (S180/A10 cells; [2]): 15
vinblastine cytotoxicity towards P388 R cells (P388 R cells; 0.00055 to 0.11 μM, 24 hours): lack of vinblastine cytotoxicity
resistance of P388 R cells to cytotoxic activity of the drug (P388 R cells): resistance of P388 R cells to cytotoxic activity
resistance of KB-V1 to the drug (KB-V1 cells): ≥ 200 fold
Relative resistance (KB-V1 cells): 200
IC50 (KB-3-1 cells): 1 nM
IC50 (RCC-5 cells): 8 nM
Relative resistance (S180/A3 cells; [3]): 3
Relative resistance (S180/A3 cells; [4]): 3
IC50 (RCC-2 cells): 3 nM
IC70 (S180 cells, parental): 0.015 µM
IC50 (S180 cells, parental; S180, parental, Table II): 8 nM
IC50 (S180 cells, parental; S180 parental, 72 h, Table I): 8 nM

CC[C@]1(O)C[C@H]2CN(CCc3c([nH]c4ccccc34)[C@@](C(=O)OC)(c3cc4c(cc3OC)N(C=O)[C@H]3[C@@](O)(C(=O)OC)[C@H](OC(C)=O)[C@]5(CC)C=CCN6CC[C@]43[C@@H]65)C2)C1 [VCR, vincristine]
Relative resistance (S180/A10 cells; [1]): 20
Relative resistance (S180/A10 cells; [2]): 17
vincristine cytotoxicity towards P388 R cells (P388 R cells; 0.1 nM to 0.054 μM, 24 hours): lack of vincristine cytotoxicity
resistance of P388 R cells to cytotoxic activity of the drug (P388 R cells): resistance of P388 R cells to cytotoxic activity
resistance of KB-V1 to the drug (KB-V1 cells): ≥ 200 fold
Relative resistance (KB-V1 cells): 400
IC50 (KB-3-1 cells): 2 nM
IC50 (RCC-5 cells): 15 nM
Relative resistance (S180/A3 cells; [3]): 10
Relative resistance (S180/A3 cells; [4]): 7
IC50 (RCC-2 cells): 5 nM
IC70 (S180 cells, parental): 0.045 µM
IC50 (S180 cells, parental; S180, parental, Table II): 30 nM
IC50 (S180 cells, parental; S180 parental, 72 h, Table I): 30 nM
